Laboratory results: ChEMBL document CHEMBL5608197, “Optimization of pyrazolopyridine 4-carboxamides with potent antimalarial activity for which resistance is associated with the P. falciparum transporter ABCI3” (Eur J Med Chem, 2024)
Converted amounts (≈) assume the structure as drawn. The source made the active and inactive calls. The rule behind the calls is not given here.

Key:
Plasmodium falciparum [1] = assay: Antiplasmodial activity against multidrug-resistant Plasmodium falciparum Cam3.1 infected in erythrocytes assessed as inhibition of parasite growth incubated for 72 hrs by [3H]hypoxanthine incorporation based microbeta counting analysis; type: functional, organism-based; settings: Cam3.1, Erythrocyte
[2] = Efflux ratio of permeability across basolateral to apical side over apical to basolateral side in human Caco-2 cells at pH 7.4; type: ADME, cell-based; settings: Caco-2, pH 7.4
[3] = Permeability of the compound across basolateral to apical side in human Caco-2 cells at pH 7.4; type: ADME, cell-based; settings: Caco-2, pH 7.4, read-out: permeability
CYP2C9 [4] = target: T1, CYP2C9 (Homo sapiens, UniProt P11712); assay: Inhibition of CYP2C9 (unknown origin) at 1 uM relative to control; type: ADME
T1 sequence (P11712 whole entry): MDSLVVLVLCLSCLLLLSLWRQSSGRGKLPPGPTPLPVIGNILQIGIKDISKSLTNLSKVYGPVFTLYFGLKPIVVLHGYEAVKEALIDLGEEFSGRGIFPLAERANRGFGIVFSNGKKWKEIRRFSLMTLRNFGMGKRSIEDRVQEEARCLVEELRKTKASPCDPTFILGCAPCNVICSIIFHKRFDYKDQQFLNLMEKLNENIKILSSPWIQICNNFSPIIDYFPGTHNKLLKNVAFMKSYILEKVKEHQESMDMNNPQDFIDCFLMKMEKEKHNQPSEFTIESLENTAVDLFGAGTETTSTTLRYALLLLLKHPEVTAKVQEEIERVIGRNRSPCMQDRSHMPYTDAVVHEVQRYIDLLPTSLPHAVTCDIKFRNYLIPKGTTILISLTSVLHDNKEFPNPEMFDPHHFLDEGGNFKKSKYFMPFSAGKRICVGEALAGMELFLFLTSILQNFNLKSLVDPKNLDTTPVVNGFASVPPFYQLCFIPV

Plasmodium falciparum [5] = assay: Antiplasmodial activity against multidrug-resistant Plasmodium falciparum Dd2 harboring CARL-I1139K mutant infected in erythrocytes assessed as inhibition of parasite growth incubated for 72 hrs by [3H]hypoxanthine incorporation based microbeta counting analysis; type: functional, organism-based; settings: Dd2, Erythrocyte
CYP3A4 [6] = target: T2, CYP3A4 (Homo sapiens, UniProt P08684); assay: Inhibition of CYP3A4 (unknown origin) at 1 uM relative to control; type: ADME
T2 sequence (P08684 whole entry): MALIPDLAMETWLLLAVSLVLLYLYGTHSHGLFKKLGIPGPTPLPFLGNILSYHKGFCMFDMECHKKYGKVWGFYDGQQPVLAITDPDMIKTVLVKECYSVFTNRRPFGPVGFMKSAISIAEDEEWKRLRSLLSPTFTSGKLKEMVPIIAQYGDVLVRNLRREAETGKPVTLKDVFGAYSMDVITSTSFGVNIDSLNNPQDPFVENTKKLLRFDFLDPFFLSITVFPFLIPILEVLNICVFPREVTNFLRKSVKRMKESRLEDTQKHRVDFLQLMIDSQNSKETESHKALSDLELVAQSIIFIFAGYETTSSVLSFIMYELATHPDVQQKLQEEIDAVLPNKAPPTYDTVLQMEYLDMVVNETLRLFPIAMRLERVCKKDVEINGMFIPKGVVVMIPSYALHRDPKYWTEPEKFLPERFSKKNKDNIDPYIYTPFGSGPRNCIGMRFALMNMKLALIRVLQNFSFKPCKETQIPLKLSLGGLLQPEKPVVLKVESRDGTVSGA

Plasmodium falciparum [7] = assay: Antiplasmodial activity against multidrug-resistant Plasmodium falciparum Dd2 harboring cyt b-I22L mutant infected in erythrocytes assessed as inhibition of parasite growth incubated for 72 hrs by [3H]hypoxanthine incorporation based microbeta counting analysis; type: functional, organism-based; settings: Dd2, Erythrocyte
Plasmodium falciparum [8] = assay: Resistance ratio of EC90 for antiplasmodial activity against drug-resistant recrudescent Plasmodium falciparum Dd2-B2 in 2x10^5 to 2x10^6 bulk culture selection measured on day 15 under initial selection drug pressure concentration of 3XEC50 to EC90 for antiplasmodial activity against Plasmodium flaciparum Dd2 measured after 72 hrs; type: functional
Plasmodium falciparum [9] = assay: Antiplasmodial activity against ring stage of Plasmodium falciparum 3D7 expressing ABCI3-HAreg assessed as inhibition of parasite proliferation incubated for 72 hrs in absence of ABCI3 inhibitor, GlcN by SYBR dye based flow cytometry; type: functional, organism-based; settings: 3D7, 72 h
Plasmodium falciparum [10] = assay: Antiplasmodial activity against multidrug-resistant Plasmodium falciparum NF54 infected in erythrocytes assessed as inhibition of parasite growth incubated for 72 hrs by [3H]hypoxanthine incorporation based microbeta counting analysis; type: functional, organism-based; settings: NF54, Erythrocyte
CYP1A2 = target: T3, CYP1A2 (Homo sapiens, UniProt P05177); assay: Inhibition of CYP1A2 (unknown origin) at 1 uM relative to control; type: ADME
T3 sequence (P05177 whole entry): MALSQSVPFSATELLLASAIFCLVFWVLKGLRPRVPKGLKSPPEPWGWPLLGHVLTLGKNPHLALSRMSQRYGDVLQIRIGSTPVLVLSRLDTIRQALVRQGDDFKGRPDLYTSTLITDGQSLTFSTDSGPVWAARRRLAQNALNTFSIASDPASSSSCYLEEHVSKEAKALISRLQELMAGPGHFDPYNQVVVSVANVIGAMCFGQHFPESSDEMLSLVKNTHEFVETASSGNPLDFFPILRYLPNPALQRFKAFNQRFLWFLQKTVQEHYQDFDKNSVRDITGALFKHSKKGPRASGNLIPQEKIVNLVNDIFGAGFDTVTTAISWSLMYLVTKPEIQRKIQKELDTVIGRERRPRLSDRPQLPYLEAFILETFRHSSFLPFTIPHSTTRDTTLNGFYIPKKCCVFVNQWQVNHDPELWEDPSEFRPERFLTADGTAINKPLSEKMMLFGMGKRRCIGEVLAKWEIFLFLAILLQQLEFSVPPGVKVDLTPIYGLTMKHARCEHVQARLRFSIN

Plasmodium falciparum [11] = assay: Resistance ratio of EC50 for antiplasmodial activity against drug-resistant recrudescent Plasmodium falciparum Dd2-B2 in 2x10^7 bulk culture selection measured on day 15 under initial selection drug pressure concentration of 3XEC50 to EC50 for antiplasmodial activity against Plasmodium flaciparum Dd2 measured after 72 hrs; type: functional
Plasmodium falciparum [12] = assay: Antimalarial activity against asexual stage of Plasmodium falciparum 3D7 infected in erythrocytes assessed as lag phase of parasite growth at 10XEC50 incubated for 24 hrs followed by drug removal and incubation for 48 hrs with CFDA-SE labelled fresh erythrocytes by Hoechst 33342 staining based two-color flow cytometry; type: functional, organism-based; settings: Erythrocyte
CYP2C9 [13] = target: T1, CYP2C9; assay: Inhibition of CYP2C9 (unknown origin) at 10 uM relative to control; type: ADME
[14] = Intrinsic clearance in human liver microsomes at 1 uM measured for 60 mins by LC-MS/MS analysis; type: ADME, Microsome; settings: read-out: CLH
[15] = Intrinsic clearance in rat hepatocytes at 1 uM measured per million cells for 90 mins by LC-MS/MS analysis; type: ADME, cell-based, Hepatocyte; settings: read-out: CLH
[16] = target: Voltage-gated inwardly rectifying potassium channel KCNH2 (Homo sapiens, UniProt Q12809); assay: Inhibition of hERG expressed in CHO cells by patch clamp method; type: toxicity, cell-based
Voltage-gated inwardly rectifying potassium channel KCNH2, sequence (Q12809 whole entry): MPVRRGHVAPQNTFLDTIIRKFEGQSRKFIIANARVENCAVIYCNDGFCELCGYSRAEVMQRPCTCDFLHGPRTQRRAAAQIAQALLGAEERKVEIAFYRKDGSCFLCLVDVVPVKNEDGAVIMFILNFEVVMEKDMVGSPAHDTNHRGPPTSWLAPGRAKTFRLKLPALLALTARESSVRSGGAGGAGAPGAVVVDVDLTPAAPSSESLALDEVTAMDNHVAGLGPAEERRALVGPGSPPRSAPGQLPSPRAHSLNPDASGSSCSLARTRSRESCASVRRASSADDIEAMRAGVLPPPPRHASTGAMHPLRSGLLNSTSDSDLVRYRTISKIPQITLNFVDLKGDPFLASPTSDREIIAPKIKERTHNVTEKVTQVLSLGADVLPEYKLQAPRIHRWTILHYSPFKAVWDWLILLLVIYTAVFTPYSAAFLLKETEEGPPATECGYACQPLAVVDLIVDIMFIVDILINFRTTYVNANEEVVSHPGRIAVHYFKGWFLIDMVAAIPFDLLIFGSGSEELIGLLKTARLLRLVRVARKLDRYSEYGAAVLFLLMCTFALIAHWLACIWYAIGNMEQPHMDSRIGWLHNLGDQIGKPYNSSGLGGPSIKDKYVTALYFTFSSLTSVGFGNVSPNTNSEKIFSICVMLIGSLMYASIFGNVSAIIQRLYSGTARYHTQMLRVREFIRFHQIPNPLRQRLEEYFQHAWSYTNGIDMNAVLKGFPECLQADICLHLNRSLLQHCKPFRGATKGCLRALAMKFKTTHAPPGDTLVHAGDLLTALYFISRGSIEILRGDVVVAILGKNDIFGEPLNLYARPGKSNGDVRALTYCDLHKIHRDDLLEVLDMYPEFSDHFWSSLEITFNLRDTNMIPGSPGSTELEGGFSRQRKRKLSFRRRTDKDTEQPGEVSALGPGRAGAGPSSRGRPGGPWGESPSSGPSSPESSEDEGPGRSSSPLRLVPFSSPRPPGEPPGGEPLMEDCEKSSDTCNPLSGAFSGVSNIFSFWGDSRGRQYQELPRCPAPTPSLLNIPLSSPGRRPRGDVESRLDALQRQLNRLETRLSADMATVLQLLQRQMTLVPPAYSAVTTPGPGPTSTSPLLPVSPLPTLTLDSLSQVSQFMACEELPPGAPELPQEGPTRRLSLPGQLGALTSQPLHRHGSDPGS

Plasmodium falciparum [17] = assay: Antiplasmodial activity against drug-resistant recrudescent Plasmodium falciparum Dd2-B2 in 2x10^7 bulk culture selection assessed as inhibition of parasite growth incubated for 72 hrs by flow cytometry; type: functional, organism-based
CYP2C19 = CYP2C19 (Homo sapiens, UniProt P33261); assay: Inhibition of CYP2C19 (unknown origin) at 10 uM relative to control; type: ADME
CYP2C19, sequence (P33261 whole entry): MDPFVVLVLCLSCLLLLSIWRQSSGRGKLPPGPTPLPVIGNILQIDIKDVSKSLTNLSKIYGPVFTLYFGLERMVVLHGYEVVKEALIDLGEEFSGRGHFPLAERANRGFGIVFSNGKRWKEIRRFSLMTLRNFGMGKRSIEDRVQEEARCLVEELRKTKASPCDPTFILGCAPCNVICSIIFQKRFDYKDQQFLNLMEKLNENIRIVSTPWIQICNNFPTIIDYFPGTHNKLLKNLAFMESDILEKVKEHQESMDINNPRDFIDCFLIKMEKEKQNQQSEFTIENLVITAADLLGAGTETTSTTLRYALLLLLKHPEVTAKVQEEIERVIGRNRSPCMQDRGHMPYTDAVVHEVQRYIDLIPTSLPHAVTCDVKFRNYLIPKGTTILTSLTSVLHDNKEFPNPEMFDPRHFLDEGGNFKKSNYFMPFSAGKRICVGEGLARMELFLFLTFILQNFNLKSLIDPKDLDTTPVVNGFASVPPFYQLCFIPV

CYP2D6 = CYP2D6 (Homo sapiens, UniProt P10635); assay: Inhibition of CYP2D6 (unknown origin) at 1 uM relative to control; type: ADME
CYP2D6, sequence (P10635 whole entry): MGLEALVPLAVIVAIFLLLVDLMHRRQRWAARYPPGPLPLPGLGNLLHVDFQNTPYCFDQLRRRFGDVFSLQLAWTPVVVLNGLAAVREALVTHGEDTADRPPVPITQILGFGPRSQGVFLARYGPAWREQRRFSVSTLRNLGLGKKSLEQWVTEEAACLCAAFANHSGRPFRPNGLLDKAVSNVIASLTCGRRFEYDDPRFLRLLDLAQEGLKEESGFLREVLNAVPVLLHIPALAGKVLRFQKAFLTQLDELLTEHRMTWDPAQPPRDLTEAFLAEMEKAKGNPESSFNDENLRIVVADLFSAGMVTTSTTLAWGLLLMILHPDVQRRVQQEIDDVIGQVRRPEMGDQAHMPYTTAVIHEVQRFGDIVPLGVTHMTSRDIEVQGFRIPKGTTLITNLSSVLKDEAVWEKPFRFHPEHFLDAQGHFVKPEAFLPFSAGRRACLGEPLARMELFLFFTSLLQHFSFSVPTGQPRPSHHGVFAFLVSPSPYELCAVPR

CYP3A4 [18] = target: T2, CYP3A4; assay: Inhibition of CYP3A4 (unknown origin) at 10 uM relative to control; type: ADME
Plasmodium falciparum [19] = assay: Antiplasmodial activity against Plasmodium falciparum Dd2-B2 assessed as inhibition of parasite growth incubated for 72 hrs by flow cytometry; type: functional, organism-based
Plasmodium falciparum [20] = assay: Antiplasmodial activity against multidrug-resistant Plasmodium falciparum Dd2 harboring PI4K-S743F mutant infected in erythrocytes assessed as inhibition of parasite growth incubated for 72 hrs by [3H]hypoxanthine incorporation based microbeta counting analysis; type: functional, organism-based; settings: Dd2, Erythrocyte
Plasmodium falciparum [21] = assay: Antiplasmodial activity against Plasmodium falciparum Dd2 infected in erythrocytes assessed as inhibition of parasite growth incubated for 72 hrs by [3H]hypoxanthine incorporation based microbeta counting analysis; type: functional, organism-based; settings: Dd2, Erythrocyte
[22] = Aqueous solubility of the compound in PBS buffer at pH 7.4 at 200 uM incubated for 2 hrs under shaking condition by miniaturized shake flask method; type: physicochemical
[23] = Lipophilicity, elogD of the compound in 1-Octanol/PBS at pH 7.4 at 7.5 uM incubated for 2 hrs by miniaturized shake flask method; type: physicochemical
Plasmodium falciparum [24] = assay: Antiplasmodial activity against drug-resistant recrudescent Plasmodium falciparum Dd2-B2 in 2x10^5 bulk culture selection assessed as inhibition of parasite growth incubated for 72 hrs by flow cytometry; type: functional, organism-based
[25] = Permeability of the compound across apical to basolateral side in human Caco-2 cells at pH 7.4; type: ADME, cell-based; settings: Caco-2, pH 7.4, read-out: permeability
[26] = Ratio of EC50 for antiplasmodial activity against ring stage of Plasmodium falciparum 3D7 expressing ABCI3-HAreg in absence of ABCI3 inhibitor, GlcN to EC50 for antiplasmodial activity against ring stage of Plasmodium falciparum 3D7 expressing ABCI3-HAreg in presence of ABCI3 inhibitor, GlcN; type: functional
Plasmodium falciparum [27] = assay: Antiplasmodial activity against multidrig-resistant Plasmodium falciparum Dd2 harboring eEF2Y-I86N mutant infected in erythrocytes assessed as inhibition of parasite growth incubated for 72 hrs by [3H]hypoxanthine incorporation based microbeta counting analysis; type: functional, organism-based; settings: Dd2, Erythrocyte

Cc1nn(C(C)(C)C)c2nc(C3CC3)cc(C(=O)N3CCOc4ccncc43)c12
EC50 (Plasmodium falciparum [1]): 6 nM
efflux ratio [2]: 1.4
Papp B→A [3]: 23.7 ×10⁻⁶ cm/s
inhibition at 1 µM (CYP2C9 [4]): 12.8%
EC50 (Plasmodium falciparum [5]): 5 nM
inhibition at 1 µM (CYP3A4 [6]): 66.2%
EC50 (Plasmodium falciparum [7]): 6 nM
Ratio (Plasmodium falciparum [8]): 5
EC50 (Plasmodium falciparum [9]): 2.7 nM
EC50 (Plasmodium falciparum [10]): 3 nM
inhibition at 1 µM (CYP1A2): 18%
Ratio EC50 (Plasmodium falciparum [11]): 5
Activity (Plasmodium falciparum [12]): Active
inhibition at 10 µM (CYP2C9 [13]): 57.5%
microsomal CLint at 1 µM [14]: 116 µL/min/mg
hepatocyte CLint at 1 µM [15]: 26 µL/min/1e6 cells
EC50 [16]: 16700 nM
EC50 (Plasmodium falciparum [17]; Dd2-B2, 72 h): 37.5 nM
EC90 (Plasmodium falciparum [17]; Dd2-B2, time 72 hrs): 68.9 nM
inhibition at 10 µM (CYP2C19): 17.4%
inhibition at 1 µM (CYP2D6): 43.8%
inhibition at 10 µM (CYP3A4 [18]): 90.5%
EC50 (Plasmodium falciparum [19]; Dd2-B2, 72 h): 6.8 nM
EC90 (Plasmodium falciparum [19]; Dd2-B2, time 72 hrs): 12.3 nM
EC50 (Plasmodium falciparum [20]): 6 nM
EC50 (Plasmodium falciparum [21]): 4 nM
solubility thermodynamic at 2 h, 200 µM [22]: 69 µM (≈ 27 µg/mL)
logD at 2 h, 7.5 µM [23]: 4.1
EC50 (Plasmodium falciparum [24]; Dd2-B2, 72 h): 28.3 nM
EC90 (Plasmodium falciparum [24]; Dd2-B2, time 72 hrs): 68.3 nM
Papp A→B [25]: 17.1 ×10⁻⁶ cm/s
Ratio EC50 [26]: 3.4
EC50 (Plasmodium falciparum [27]): 7 nM
